From US5232913A, “Antihepatopathic composition” (Senju Pharmaceutical Co., Ltd., priority 1990, dated 1993)

Tested on: acetaminophen-induced hepatic impairment
Experiment: Effect on acetaminophen-induced hepatic impairment
Assay type: in vivo, rat
Settings: Male SD rats; 0.5 mmole/kg orally, one hour before acetaminophen 300 mg/kg i.p.; serum after 24 hours; versus physiological saline control
Protocol: Method; Male SD rats (body weights ca. 180 g) purchased form Japan SLC were used. The test substance was orally administered (0.5 mmole/kg) and one hour later 300 mg/kg of acetaminophen was intraperitoneally administered. After 24 hours, blood was drawn from the abdominal aorta and the serum was separated. Using this serum, s-GOT and GPT were determined.

First: CC(C)COC(=O)C(C)CSC[C@H](NC(=O)CC[C@H](N)C(=O)O)C(=O)NCC(=O)O (stereo partly drawn) [compound 5, S-(2-Methyl-2-carboisobutoxyethyl)glutathione]
Second: CC(C)COC(=O)C(C)CSCC(NC(=O)CCC(N)C(=O)O)C(=O)NCC(=O)OC(C)C (stereo not drawn) [compound 8, S-(2-Methyl-2-carbiosobutoxyethyl)glutathione isopropyl ester]
The s-GOT % inhibition of the first is lower: 43.6% for the first, 96.9% for the second.

In the case of CCOC(=O)C(C)CSCC(NC(=O)CCC(N)C(=O)O)C(=O)NCC(=O)OC(C)C (stereo not drawn) [compound 7, S-(2-Methyl-2-carbethoxyethyl)glutathione isopropyl ester], the s-GOT % inhibition is reported as 70.2%.

Compared with CC(C)COC(=O)C(C)CSC[C@H](NC(=O)CC[C@H](N)C(=O)O)C(=O)NCC(=O)O (stereo partly drawn) [compound 5, S-(2-Methyl-2-carboisobutoxyethyl)glutathione], CC(C)COC(=O)C(C)CSCC(NC(=O)CCC(N)C(=O)O)C(=O)NCC(=O)OC(C)C (stereo not drawn) [compound 8, S-(2-Methyl-2-carbiosobutoxyethyl)glutathione isopropyl ester] is higher in s-GPT % inhibition: 32.8% for the first, 97.5% for the second.

CCOC(=O)C(C)CSCC(NC(=O)CCC(N)C(=O)O)C(=O)NCC(=O)OC(C)C (stereo not drawn) [compound 7, S-(2-Methyl-2-carbethoxyethyl)glutathione isopropyl ester] showed a s-GPT % inhibition of 74.3%.

Same assay, conditions: Male SD rats; 0.5 mmole/kg orally; acetaminophen 300 mg/kg i.p.

In the case of CC(CSC[C@H](NC(=O)CC[C@H](N)C(=O)O)C(=O)NCC(=O)O)C(=O)O (stereo partly drawn) [compound 1, S-(2-carboxypropyl)glutathione], the “inhibitory effect on acetaminophen-induced hepatic impairment (antihepatopathic effect, in words)” value (“inhibitory effect” below) is reported as “significant antihepatopathic effects”.
With CCOC(=O)C(C)CSC[C@H](NC(=O)CC[C@H](N)C(=O)O)C(=O)NCC(=O)O (stereo partly drawn) [compound 2, S-(2-carbethoxypropyl)glutathione] the “inhibitory effect” value was “significant antihepatopathic effects”.
With N[C@@H](CCC(=O)N[C@@H](CSCCC(=O)O)C(=O)NCC(=O)O)C(=O)O [compound 3, S-(2-Carboxyethyl)glutathione] the “inhibitory effect” value was “significant antihepatopathic effects”.
With CCOC(=O)CCSC[C@H](NC(=O)CC[C@H](N)C(=O)O)C(=O)NCC(=O)O [compound 4, S-(2-Carbethoxyethyl)glutathione] the “inhibitory effect” value was “significant antihepatopathic effects”.
CCOC(=O)C(C)CSCC(NC(=O)CCC(N)C(=O)O)C(=O)NCC(=O)OC(C)C (stereo not drawn) [compound 7, S-(2-Methyl-2-carbethoxyethyl)glutathione isopropyl ester] was tested, and the “inhibitory effect” value was “significant antihepatopathic effects”.
In the case of CC(C)COC(=O)C(C)CSCC(NC(=O)CCC(N)C(=O)O)C(=O)NCC(=O)OC(C)C (stereo not drawn) [compound 8, S-(2-Methyl-2-carbiosobutoxyethyl)glutathione isopropyl ester], the “inhibitory effect” value is reported as “significant antihepatopathic effects”.
For CC(C)OC(=O)CC(C)SC[C@H](NC(=O)CC[C@H](N)C(=O)O)C(=O)NCC(=O)O (stereo partly drawn) [compound 9, S-(1-Methyl-2-carboisopropoxyethyl)glutathione], the “inhibitory effect” value was “significant antihepatopathic effects”.

Same assay, conditions: Male SD rats; test substance 0.5 mmole/kg orally, one hour later acetaminophen 300 mg/kg i.p.; serum after 24 hours; mean ± S.E., n = 7-10

CC(CSC[C@H](NC(=O)CC[C@H](N)C(=O)O)C(=O)NCC(=O)O)C(=O)O (stereo partly drawn) [compound 1, S-(2-carboxypropyl)glutathione] and CCOC(=O)C(C)CSC[C@H](NC(=O)CC[C@H](N)C(=O)O)C(=O)NCC(=O)O (stereo partly drawn) [compound 2, S-(2-carbethoxypropyl)glutathione] are within error of each other in s-GOT: 1259 ± 424 IU/l for the first, 841 ± 354 IU/l for the second.

N[C@@H](CCC(=O)N[C@@H](CSCCC(=O)O)C(=O)NCC(=O)O)C(=O)O [compound 3, S-(2-Carboxyethyl)glutathione] and CCOC(=O)CCSC[C@H](NC(=O)CC[C@H](N)C(=O)O)C(=O)NCC(=O)O [compound 4, S-(2-Carbethoxyethyl)glutathione] are within error of each other in s-GOT: 1968 ± 626 IU/l for the first, 1935 ± 530 IU/l for the second.

Going from CC(C)COC(=O)C(C)CSC[C@H](NC(=O)CC[C@H](N)C(=O)O)C(=O)NCC(=O)O (stereo partly drawn) [compound 5, S-(2-Methyl-2-carboisobutoxyethyl)glutathione] to CC(C)COC(=O)C(C)CSCC(NC(=O)CCC(N)C(=O)O)C(=O)NCC(=O)OC(C)C (stereo not drawn) [compound 8, S-(2-Methyl-2-carbiosobutoxyethyl)glutathione isopropyl ester], the s-GOT falls from 2972 ± 803 IU/l to 163 ± 89 IU/l.

Compared with CC(CSC[C@H](NC(=O)CC[C@H](N)C(=O)O)C(=O)NCC(=O)O)C(=O)OCc1ccccc1 (stereo partly drawn) [compound 6, S-[2-Methyl-2-carbobenzoxyethyl]glutathione], CCOC(=O)C(C)CSCC(NC(=O)CCC(N)C(=O)O)C(=O)NCC(=O)OC(C)C (stereo not drawn) [compound 7, S-(2-Methyl-2-carbethoxyethyl)glutathione isopropyl ester] is lower in s-GOT: 2968 ± 824 IU/l for the first, 1570 ± 511 IU/l for the second.

CC(C)OC(=O)CC(C)SC[C@H](NC(=O)CC[C@H](N)C(=O)O)C(=O)NCC(=O)O (stereo partly drawn) [compound 9, S-(1-Methyl-2-carboisopropoxyethyl)glutathione] gave a s-GOT of 171 ± 71 IU/l.

CC(CSC[C@H](NC(=O)CC[C@H](N)C(=O)O)C(=O)NCC(=O)O)C(=O)O (stereo partly drawn) [compound 1, S-(2-carboxypropyl)glutathione] and CCOC(=O)C(C)CSC[C@H](NC(=O)CC[C@H](N)C(=O)O)C(=O)NCC(=O)O (stereo partly drawn) [compound 2, S-(2-carbethoxypropyl)glutathione] are within error of each other in s-GPT: 337 ± 117 IU/l for the first, 195 ± 81 IU/l for the second.

N[C@@H](CCC(=O)N[C@@H](CSCCC(=O)O)C(=O)NCC(=O)O)C(=O)O [compound 3, S-(2-Carboxyethyl)glutathione] and CCOC(=O)CCSC[C@H](NC(=O)CC[C@H](N)C(=O)O)C(=O)NCC(=O)O [compound 4, S-(2-Carbethoxyethyl)glutathione] are within error of each other in s-GPT: 530 ± 180 IU/l for the first, 598 ± 226 IU/l for the second.

Compared with CC(C)COC(=O)C(C)CSC[C@H](NC(=O)CC[C@H](N)C(=O)O)C(=O)NCC(=O)O (stereo partly drawn) [compound 5, S-(2-Methyl-2-carboisobutoxyethyl)glutathione], CC(C)COC(=O)C(C)CSCC(NC(=O)CCC(N)C(=O)O)C(=O)NCC(=O)OC(C)C (stereo not drawn) [compound 8, S-(2-Methyl-2-carbiosobutoxyethyl)glutathione isopropyl ester] is lower in s-GPT: 1384 ± 417 IU/l for the first, 52 ± 29 IU/l for the second.

Going from CC(CSC[C@H](NC(=O)CC[C@H](N)C(=O)O)C(=O)NCC(=O)O)C(=O)OCc1ccccc1 (stereo partly drawn) [compound 6, S-[2-Methyl-2-carbobenzoxyethyl]glutathione] to CCOC(=O)C(C)CSCC(NC(=O)CCC(N)C(=O)O)C(=O)NCC(=O)OC(C)C (stereo not drawn) [compound 7, S-(2-Methyl-2-carbethoxyethyl)glutathione isopropyl ester], the s-GPT falls from 1384 ± 421 IU/l to 529 ± 168 IU/l.

Compound CC(C)OC(=O)CC(C)SC[C@H](NC(=O)CC[C@H](N)C(=O)O)C(=O)NCC(=O)O (stereo partly drawn) [compound 9, S-(1-Methyl-2-carboisopropoxyethyl)glutathione] has a s-GPT of 43 ± 21 IU/l.

Same assay, conditions: Rattus norvegicus; Male SD rats; 0.5 mmole/kg orally, one hour before acetaminophen 300 mg/kg i.p.; serum after 24 hours; versus physiological saline control; read-out: s-GOT % inhibition

Going from CC(CSC[C@H](NC(=O)CC[C@H](N)C(=O)O)C(=O)NCC(=O)O)C(=O)O (stereo partly drawn) [compound 1, S-(2-carboxypropyl)glutathione] to CCOC(=O)C(C)CSC[C@H](NC(=O)CC[C@H](N)C(=O)O)C(=O)NCC(=O)O (stereo partly drawn) [compound 2, S-(2-carbethoxypropyl)glutathione], the inhibition at 500 µmol/kg rises from 76.1% to 84%.

Going from N[C@@H](CCC(=O)N[C@@H](CSCCC(=O)O)C(=O)NCC(=O)O)C(=O)O [compound 3, S-(2-Carboxyethyl)glutathione] to CCOC(=O)CCSC[C@H](NC(=O)CC[C@H](N)C(=O)O)C(=O)NCC(=O)O [compound 4, S-(2-Carbethoxyethyl)glutathione], the inhibition at 500 µmol/kg rises from 62.6% to 63.3%.

Compared with CC(CSC[C@H](NC(=O)CC[C@H](N)C(=O)O)C(=O)NCC(=O)O)C(=O)OCc1ccccc1 (stereo partly drawn) [compound 6, S-[2-Methyl-2-carbobenzoxyethyl]glutathione], CC(C)OC(=O)CC(C)SC[C@H](NC(=O)CC[C@H](N)C(=O)O)C(=O)NCC(=O)O (stereo partly drawn) [compound 9, S-(1-Methyl-2-carboisopropoxyethyl)glutathione] is higher in inhibition at 500 µmol/kg: 43.7% for the first, 96.8% for the second.

Same assay, conditions: Rattus norvegicus; Male SD rats; 0.5 mmole/kg orally, one hour before acetaminophen 300 mg/kg i.p.; serum after 24 hours; versus physiological saline control; read-out: s-GPT % inhibition

Compared with CC(CSC[C@H](NC(=O)CC[C@H](N)C(=O)O)C(=O)NCC(=O)O)C(=O)O (stereo partly drawn) [compound 1, S-(2-carboxypropyl)glutathione], CCOC(=O)C(C)CSC[C@H](NC(=O)CC[C@H](N)C(=O)O)C(=O)NCC(=O)O (stereo partly drawn) [compound 2, S-(2-carbethoxypropyl)glutathione] is higher in inhibition at 500 µmol/kg: 83.6% for the first, 90.5% for the second.

First: N[C@@H](CCC(=O)N[C@@H](CSCCC(=O)O)C(=O)NCC(=O)O)C(=O)O [compound 3, S-(2-Carboxyethyl)glutathione]
Second: CCOC(=O)CCSC[C@H](NC(=O)CC[C@H](N)C(=O)O)C(=O)NCC(=O)O [compound 4, S-(2-Carbethoxyethyl)glutathione]
The inhibition at 500 µmol/kg of the first is higher: 74.3% for the first, 71% for the second.

Going from CC(CSC[C@H](NC(=O)CC[C@H](N)C(=O)O)C(=O)NCC(=O)O)C(=O)OCc1ccccc1 (stereo partly drawn) [compound 6, S-[2-Methyl-2-carbobenzoxyethyl]glutathione] to CC(C)OC(=O)CC(C)SC[C@H](NC(=O)CC[C@H](N)C(=O)O)C(=O)NCC(=O)O (stereo partly drawn) [compound 9, S-(1-Methyl-2-carboisopropoxyethyl)glutathione], the inhibition at 500 µmol/kg rises from 32.8% to 97.9%.
